Numbered stars: 1 amine (or outer) side, 2 acyl side, 3 side chain; on linkers, the order of the positions; unused ones are H or OH. Square brackets hold non-standard residues; d marks the D form. Peptide text beside a SMILES is read from it. * marks the point of attachment. Sta = CC(C)C[C@H](N)[C@@H](O)CC(=O)O; Hydrocinnamoyl = O=C(CCc1ccccc1)*; NHPhenethyl = c1ccc(CCN*)cc1; Isobutyryl = CC(C)C(=O)*; Piperidide = C1CCN(*)CC1; Pyrrolidide = C1CCN(*)C1; Cbz = O=C(OCc1ccccc1)*; PhAc = O=C(Cc1ccccc1)*; CO = O=C([*:1])[*:2]; NHBn = c1ccc(CN*)cc1; Alloc = C=CCOC(=O)*; NHPh = c1ccc(N*)cc1; Ms = CS(=O)(=O)*; NHiPr = CC(C)N*; NHPr = CCCN*

For the first experiment, the target named is Plasmepsin V (Plasmodium falciparum (isolate 3D7), UniProt Q8I6Z5). The experiment is described as follows: Inhibition of Plasmodium falciparum plasmepsin V assessed as cleavage of wtKAHRP fluorogenic substrate.
Chain of Plasmepsin V (Q8I6Z5 whole entry): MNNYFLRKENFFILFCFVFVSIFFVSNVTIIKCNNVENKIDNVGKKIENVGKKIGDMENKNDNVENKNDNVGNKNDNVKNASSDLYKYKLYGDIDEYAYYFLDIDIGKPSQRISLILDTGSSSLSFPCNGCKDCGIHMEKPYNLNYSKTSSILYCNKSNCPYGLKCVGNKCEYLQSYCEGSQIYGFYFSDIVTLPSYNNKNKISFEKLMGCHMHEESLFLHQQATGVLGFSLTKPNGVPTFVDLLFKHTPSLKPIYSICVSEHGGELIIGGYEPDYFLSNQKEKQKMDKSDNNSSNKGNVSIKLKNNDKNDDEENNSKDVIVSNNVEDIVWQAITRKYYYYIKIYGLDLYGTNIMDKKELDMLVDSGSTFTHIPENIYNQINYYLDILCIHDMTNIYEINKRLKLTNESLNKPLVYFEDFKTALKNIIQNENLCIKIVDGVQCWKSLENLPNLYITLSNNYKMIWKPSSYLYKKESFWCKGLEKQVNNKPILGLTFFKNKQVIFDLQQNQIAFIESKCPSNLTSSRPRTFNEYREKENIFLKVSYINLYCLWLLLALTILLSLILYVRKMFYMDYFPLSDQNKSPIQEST
As a reminder, the IC50 is the concentration at which inhibition is half-maximal. `CC(C)[C@H](NC(=O)[C@H](C)NC(=O)[C@H](CCCNC(=N)N)NC(=O)OCc1ccccc1)[C@@H](O)CC(=O)NC1CCCCC1`: the half-inhibitory concentration (IC50) is over 20 µM.
On the same count and under the same terms, in the case of `CC(C)C[C@H](NC(=O)[C@H](C)NC(=O)[C@H](CCCCNC(=N)N)NC(=O)OCc1ccccc1)[C@@H](O)CC(=O)NC1CCCCC1` it was over 20 µM; in that of `CC[C@H](C)[C@H](NC(=O)[C@H](C)NC(=O)[C@H](CCCNC(=N)N)NC(=O)OCc1ccccc1)[C@@H](O)CC(=O)NC1CCCCC1`, over 20 µM.
Regarding `C[C@H](NC(=O)[C@H](CCCNC(=N)N)NC(=O)OCc1ccccc1)C(=O)N[C@@H](Cc1ccccc1)[C@@H](O)CC(=O)NC1CCCCC1`, the IC50 is over 20 µM.

The target of a further experiment is Plasmepsin V (Plasmodium falciparum (isolate 3D7)) (UniProt Q8I6Z5). Description: Inhibition of Plasmodium falciparum plasmepsin V assessed as cleavage of wtKAHRP fluorogenic substrate at 1 uM.
Chain of Plasmepsin V (Plasmodium falciparum (isolate 3D7)) (Q8I6Z5 whole entry, looked up): as the sequence (Q8I6Z5 whole entry) above
In general, inhibition refers to the relative decrease from the control value, in per cent. Turning to `CC(C)C[C@H](NC(=O)[C@H](C)NC(=O)[C@H](CCCNC(=N)N)NC(=O)Nc1ccccc1)[C@@H](O)CC(=O)NCCc1ccccc1` ({NHPh-CO}-Arg-Ala-[Sta]-NHPhenethyl), the inhibition came out at 53%.
On to `CC(C)C[C@H](NC(=O)[C@H](C)NC(=O)[C@H](CCCNC(=N)N)NC(=O)OCc1ccccc1)[C@@H](O)CC(=O)NC(C)C` (Cbz-Arg-Ala-[Sta]-NHiPr), for which the inhibition was determined as 42%.
Still for that read-out and setting: the same measure for `CC(C)C[C@H](NC(=O)[C@H](C)NC(=O)[C@H](CCCNC(=N)N)NC(=O)OCc1ccccc1)[C@@H](O)CC(=O)N1CCCCC1` (Cbz-Arg-Ala-[Sta]-Piperidide): 27%.
Still for that read-out and setting: the same measure for `CC(C)COC(=O)N[C@@H](CCCNC(=N)N)C(=O)N[C@@H](C)C(=O)N[C@@H](CC(C)C)[C@@H](O)CC(=O)NCCc1ccccc1`: 47%; for `CC(C)C[C@H](NC(=O)[C@H](C)NC(=O)[C@H](CCCNC(=N)N)NC(=O)OCc1ccccc1)[C@@H](O)CC(=O)N(C)C(C)c1ccccc1` (some centres not stated): 30%.
Take `CC(C)C[C@H](NC(=O)[C@H](C)NC(=O)[C@H](CCCNC(=N)N)NC(=O)NC1CCCC1)[C@@H](O)CC(=O)NCCc1ccccc1`: the inhibition was 41%.
The same measure, in the same setting: the same measure for `CC(C)CCNC(=O)C[C@H](O)[C@H](CC(C)C)NC(=O)[C@H](C)NC(=O)[C@H](CCCNC(=N)N)NC(=O)OCc1ccccc1`: 65%; for `CCNC(=O)N[C@@H](CCCNC(=N)N)C(=O)N[C@@H](C)C(=O)N[C@@H](CC(C)C)[C@@H](O)CC(=O)NCCc1ccccc1` ({NHEt-CO}-Arg-Ala-[Sta]-NHPhenethyl): 26%; for `CC(C)C[C@H](NC(=O)[C@H](C)NC(=O)[C@H](CCCNC(=N)N)NC(=O)OCc1ccccc1)[C@@H](O)CC(=O)NC1CCC1`: 56%.
Turning to `CC(C)C[C@H](NC(=O)[C@H](C)NC(=O)[C@H](CCCNC(=N)N)NC(=O)CCc1ccccc1)[C@@H](O)CC(=O)NCCc1ccccc1` (Hydrocinnamoyl-Arg-Ala-[Sta]-NHPhenethyl), the inhibition turned out to be 68%.
Still for that read-out and setting: the same measure for `CC(C)C[C@H](NC(=O)[C@H](C)NC(=O)[C@H](CCCNC(=N)N)NC(=O)OCc1ccccc1)[C@@H](O)CC(=O)NC1CCCC1`: 52%; for `CC(C)C[C@H](NC(=O)[C@H](C)NC(=O)[C@H](CCCNC(=N)N)NC(=O)OCc1ccccc1)[C@@H](O)CC(=O)N1CCCC1` (Cbz-Arg-Ala-[Sta]-Pyrrolidide): 13%.
Same read-out and setting: the same measure for `CC(C)C[C@H](NC(=O)[C@H](C)NC(=O)[C@H](CCCNC(=N)N)NS(=O)(=O)C1CC1)[C@@H](O)CC(=O)NCCc1ccccc1`: 80%; for `CC(C)C[C@H](NC(=O)[C@H](C)NC(=O)[C@H](CCCNC(=N)N)NC(=O)OCc1ccccc1)[C@@H](O)CC(=O)NCC1CCCCC1`: 63%; for `CC(C)CNC(=O)C[C@H](O)[C@H](CC(C)C)NC(=O)[C@H](C)NC(=O)[C@H](CCCNC(=N)N)NC(=O)OCc1ccccc1`: 49%.
Same read-out and setting: the same measure for `CC(C)C[C@H](NC(=O)[C@H](C)NC(=O)[C@H](CCCNC(=N)N)NC(=O)OCc1ccccc1)[C@@H](O)CC(=O)N1CCc2ccccc2C1`: 45%; for `CC(C)C[C@H](NC(=O)[C@H](C)NC(=O)[C@H](CCCNC(=N)N)NC(=O)OCc1ccccc1)[C@@H](O)CC(=O)N(C)CCc1ccccc1`: 11%.
With `CC(C)C[C@H](NC(=O)[C@H](C)NC(=O)[C@H](CCCNC(=N)N)NC(=O)OCc1ccccc1)[C@@H](O)CC(=O)NC1CCCc2ccccc21` (some centres not stated), the inhibition worked out at 51%.
`CC(C)C[C@H](NC(=O)[C@H](C)NC(=O)[C@H](CCCNC(=N)N)NS(=O)(=O)CCc1ccccc1)[C@@H](O)CC(=O)NCCc1ccccc1`: the inhibition was 78%.
Turning to `CC(=O)N[C@@H](CCCNC(=N)N)C(=O)N[C@@H](C)C(=O)N[C@@H](CC(C)C)[C@@H](O)CC(=O)NCCc1ccccc1` (Ac-Arg-Ala-[Sta]-NHPhenethyl), the inhibition is 42%.
As for `CC(C)C[C@H](NC(=O)[C@H](C)NC(=O)[C@H](CCCNC(=N)N)NC(=O)OCc1ccccc1)[C@@H](O)CC(=O)NC1CC1`, the inhibition was found to be 55%.
Same read-out and setting: the same measure for `CCCNC(=O)C[C@H](O)[C@H](CC(C)C)NC(=O)[C@H](C)NC(=O)[C@H](CCCNC(=N)N)NC(=O)OCc1ccccc1` (Cbz-Arg-Ala-[Sta]-NHPr): 56%.
On the same count and under the same terms, in the case of `CC(C)C[C@H](NC(=O)[C@H](C)NC(=O)[C@H](CCCNC(=N)N)NC(=O)C1CCCCC1)[C@@H](O)CC(=O)NCCc1ccccc1` it was 43%; in that of `CC(C)C[C@H](NC(=O)[C@H](C)NC(=O)[C@H](CCCNC(=N)N)NC(=O)N(C)C)[C@@H](O)CC(=O)NCCc1ccccc1` ({NMe2-CO}-Arg-Ala-[Sta]-NHPhenethyl), 65%.
Still for that read-out and setting: in the case of `CC(C)C[C@H](NC(=O)[C@H](C)NC(=O)[C@H](CCCNC(=N)N)NC(=O)OCc1ccccc1)[C@@H](O)CC(=O)N(C)Cc1ccccc1` it was 30%; in that of `CC(C)C[C@H](NC(=O)[C@H](C)NC(=O)[C@H](CCCNC(=N)N)NC(=O)OCc1ccccc1)[C@@H](O)CC(=O)NCCCc1ccccc1`, 75%.
On to `CC(C)C[C@H](NC(=O)[C@H](C)NC(=O)[C@H](CCCNC(=N)N)NC(=O)OCc1ccccc1)[C@@H](O)CC(=O)N1CCC(c2ccccc2)CC1`, for which the inhibition was 13%.
`CC(C)C[C@H](NC(=O)[C@H](C)NC(=O)[C@H](CCCNC(=N)N)NC(=O)Cc1ccccc1)[C@@H](O)CC(=O)NCCc1ccccc1` (PhAc-Arg-Ala-[Sta]-NHPhenethyl): the inhibition worked out at 59%.
Same read-out and setting: the same measure for `CC(C)C[C@H](NC(=O)[C@H](C)NC(=O)[C@H](CCCNC(=N)N)NC(=O)C(C)C)[C@@H](O)CC(=O)NCCc1ccccc1` (Isobutyryl-Arg-Ala-[Sta]-NHPhenethyl): 49%.
Take `CC(C)C[C@H](NC(=O)[C@H](C)NC(=O)[C@H](CCCNC(=N)N)NS(C)(=O)=O)[C@@H](O)CC(=O)NCCc1ccccc1` (Ms-Arg-Ala-[Sta]-NHPhenethyl): the inhibition stood at 53%.
Same read-out and setting: the same measure for `CC(C)C[C@H](NC(=O)[C@H](C)NC(=O)[C@H](CCCNC(=N)N)NC(=O)NCc1ccccc1)[C@@H](O)CC(=O)NCCc1ccccc1` ({NHBn-CO}-Arg-Ala-[Sta]-NHPhenethyl): 32%.
On the same count and under the same terms, in the case of `C=CCOC(=O)N[C@@H](CCCNC(=N)N)C(=O)N[C@@H](C)C(=O)N[C@@H](CC(C)C)[C@@H](O)CC(=O)NCCc1ccccc1` (Alloc-Arg-Ala-[Sta]-NHPhenethyl) it was 35%; in that of `CC(C)C[C@H](NC(=O)[C@H](C)NC(=O)[C@H](CCCNC(=N)N)NC(=O)OCc1ccccc1)[C@@H](O)CC(=O)N(C)C` (Cbz-Arg-Ala-[Sta]-NMe2), 32%.

Source of the values: ChEMBL document CHEMBL3352063, “Transition state mimetics of the Plasmodium export element are potent inhibitors of Plasmepsin V from P. falciparum and P. vivax” (J Med Chem, 2014).
